Reference: publication PMC5578999, “Novel quinolone chalcones targeting colchicine-binding pocket kill multidrug-resistant cancer cells by inhibiting tubulin activity and MRP1 function” (Scientific Reports, 2017)

Key:
Test in all cases: NCI-60 SRB screen
Format in all cases: cell-based
[1] = test system: OVCAR-5
Excerpt: (§1) Supplementary Figure l egend
(§2) 10μ M of CTR-20 was used to examine the drug’s efficac y against the NC I-60 cancer cell li nes including: six leukemia cell lines, nine non- small cell lung cancer cell lines, seven color ect al cancer cell lines, six CNS cancer cell lines, nine melanoma cell lines, seven ovari an can cer cell lines, seven ren al can cer cell lines, two prostate cancer cell lines and six breast cancer cell lines. The scr eenin g was car r ied out b y the US National Cancer Institute (NC I) us i n g a sulforhodamine B (SRB) colorimetric assay. […]
(§3) out by the NC I using five different doses of CTR -20.

[2] = test system: UACC-257
Excerpt: as §1, §2, §3

[3] = test system: RXF 393
Excerpt: as §1, §2, §3

[4] = test system: UACC-62
Excerpt: as §1, §2, §3

[5] = test system: NCI-H460
Excerpt: as §1, §2, §3

[6] = test system: HOP-92
Excerpt: as §1, §2, §3

[7] = test system: MDA-MB-468
Excerpt: as §1, §2, §3

[8] = test system: U251
Excerpt: as §1, §2, §3

[9] = test system: BT-549
Excerpt: as §1, §2, §3

[10] = test system: NCI/ADR-RES
Excerpt: as §1, §2, §3

[11] = test system: DU-145
Excerpt: as §1, §2, §3

[12] = test system: K-562
Excerpt: as §1, §2, §3

[13] = Homo sapiens, read-out: LC50 (the source's name)

## COc1ccc2[nH]c(=O)c(/C=C/C(=O)c3ccccc3OC)cc2c1 [CTR-20, (E)-6-Methoxy-3-(3-(2-methoxyphenyl)-3-oxoprop-1-enyl) quinolin-2(1H)-one]
[1]
  Log10GI50: -5.71 Molar
  Log10LC50: -4.33 Molar
  Log10TGI: -4.98 Molar
  TGI: 1.04E-5 Molar
[1]; 1.00E-5 Molar
  Growth Percent: 12.07%
[1]; Homo sapiens
  GI50: 1970 nM
[1]; [13]
  CC50: 46600 nM
[1]; Log10 Concentration -4.0
  Percent Growth: -75%
[1]; Log10 Concentration -5.0
  Percent Growth: 1%
[1]; Log10 Concentration -6.0
  Percent Growth: 70%
[1]; Log10 Concentration -7.0
  Percent Growth: 98%
[1]; Log10 Concentration -8.0
  Percent Growth: 93%
[2]
  Log10GI50: -5.86 Molar
  Log10LC50: -5.17 Molar
  Log10TGI: -5.52 Molar
  TGI: 3.05E-6 Molar
[2]; 1.00E-5 Molar
  Growth Percent: 37.62%
[2]; Homo sapiens
  GI50: 1380 nM
[2]; [13]
  CC50: 6750 nM
[2]; Log10 Concentration -4.0
  Percent Growth: -100%
[2]; Log10 Concentration -5.0
  Percent Growth: -75%
[2]; Log10 Concentration -6.0
  Percent Growth: 70%
[2]; Log10 Concentration -7.0
  Percent Growth: 101%
[2]; Log10 Concentration -8.0
  Percent Growth: 98%
[3]
  Log10GI50: -5.99 Molar
  Log10LC50: -5.19 Molar
  Log10TGI: -5.59 Molar
  TGI: 2.57E-6 Molar
[3]; 1.00E-5 Molar
  Growth Percent: -7.90%
[3]; Homo sapiens
  GI50: 1020 nM
[3]; [13]
  CC50: 6480 nM
[3]; Log10 Concentration -4.0
  Percent Growth: -98%
[3]; Log10 Concentration -5.0
  Percent Growth: -74%
[3]; Log10 Concentration -6.0
  Percent Growth: 51%
[3]; Log10 Concentration -7.0
  Percent Growth: 99%
[3]; Log10 Concentration -8.0
  Percent Growth: 99%
[4]
  Log10GI50: -6.32 Molar
  Log10LC50: -4.75 Molar
  Log10TGI: -5.53 Molar
  TGI: 2.97E-6 Molar
[4]; 1.00E-5 Molar
  Growth Percent: 25.73%
[4]; Homo sapiens
  GI50: 478 nM
[4]; [13]
  CC50: 17900 nM
[4]; Log10 Concentration -4.0
  Percent Growth: -95%
[4]; Log10 Concentration -5.0
  Percent Growth: -35%
[4]; Log10 Concentration -6.0
  Percent Growth: 31%
[4]; Log10 Concentration -7.0
  Percent Growth: 90%
[4]; Log10 Concentration -8.0
  Percent Growth: 94%
[5]
  Log10GI50: -6.42 Molar
  Log10LC50: -4.44 Molar
  Log10TGI: -5.65 Molar
  TGI: 2.25E-6 Molar
[5]; 1.00E-5 Molar
  Growth Percent: 1.79%
[5]; Homo sapiens
  GI50: 380 nM
[5]; [13]
  CC50: 36700 nM
[5]; Log10 Concentration -4.0
  Percent Growth: -71%
[5]; Log10 Concentration -5.0
  Percent Growth: -22%
[5]; Log10 Concentration -6.0
  Percent Growth: 12%
[5]; Log10 Concentration -7.0
  Percent Growth: 102%
[5]; Log10 Concentration -8.0
  Percent Growth: 105%
[6]
  Log10GI50: -5.80 Molar
  Log10LC50: -4.57 Molar
  Log10TGI: -5.21 Molar
  TGI: 6.17E-6 Molar
[6]; 1.00E-5 Molar
  Growth Percent: -11.97%
[6]; Homo sapiens
  GI50: 1570 nM
  LC50: 27000 nM
[6]; Log10 Concentration -4.0
  Percent Growth: -92%
[6]; Log10 Concentration -5.0
  Percent Growth: -18%
[6]; Log10 Concentration -6.0
  Percent Growth: 67%
[6]; Log10 Concentration -7.0
  Percent Growth: 111%
[6]; Log10 Concentration -8.0
  Percent Growth: 107%
[7]
  Log10GI50: -6.47 Molar
  Log10LC50: -4.40 Molar
  Log10TGI: -5.78 Molar
  TGI: 1.65E-6 Molar
[7]; 1.00E-5 Molar
  Growth Percent: 16.65%
[7]; Homo sapiens
  GI50: 336 nM
[7]; [13]
  CC50: 40100 nM
[7]; Log10 Concentration -4.0
  Percent Growth: -68%
[7]; Log10 Concentration -5.0
  Percent Growth: -22%
[7]; Log10 Concentration -6.0
  Percent Growth: 6%
[7]; Log10 Concentration -7.0
  Percent Growth: 99%
[7]; Log10 Concentration -8.0
  Percent Growth: 99%
[8]
  Log10GI50: -6.28 Molar
  Log10LC50: -5.38 Molar
  Log10TGI: -5.77 Molar
  TGI: 1.70E-6 Molar
[8]; 1.00E-5 Molar
  Growth Percent: 5.14%
[8]; Homo sapiens, U-251
  GI50: 521 nM
  LC50: 4210 nM
[8]; Log10 Concentration -4.0
  Percent Growth: -99%
[8]; Log10 Concentration -5.0
  Percent Growth: -98%
[8]; Log10 Concentration -6.0
  Percent Growth: 29%
[8]; Log10 Concentration -7.0
  Percent Growth: 103%
[8]; Log10 Concentration -8.0
  Percent Growth: 102%
[9]
  Log10GI50: -6.41 Molar
  Log10LC50: -4.72 Molar
  Log10TGI: -5.62 Molar
  TGI: 2.42E-6 Molar
[9]; 1.00E-5 Molar
  Growth Percent: 18.91%
[9]; Homo sapiens
  GI50: 387 nM
[9]; [13]
  CC50: 19200 nM
[9]; Log10 Concentration -4.0
  Percent Growth: -97%
[9]; Log10 Concentration -5.0
  Percent Growth: -32%
[9]; Log10 Concentration -6.0
  Percent Growth: 20%
[9]; Log10 Concentration -7.0
  Percent Growth: 93%
[9]; Log10 Concentration -8.0
  Percent Growth: 91%
[10]
  Log10GI50: -6.56 Molar
  Log10LC50: > -4.00 Molar
  Log10TGI: -4.70 Molar
  TGI: 2.00E-5 Molar
[10]; 1.00E-5 Molar
  Growth Percent: 10.36%
[10]; Homo sapiens
  GI50: 273 nM
[10]; [13]
  CC50: > 100000 nM
[10]; Log10 Concentration -4.0
  Percent Growth: -8%
[10]; Log10 Concentration -5.0
  Percent Growth: 3%
[10]; Log10 Concentration -6.0
  Percent Growth: 14%
[10]; Log10 Concentration -7.0
  Percent Growth: 78%
[10]; Log10 Concentration -8.0
  Percent Growth: 97%
[11]
  Log10GI50: -6.28 Molar
  Log10LC50: -5.26 Molar
  Log10TGI: -5.71 Molar
  TGI: 1.96E-6 Molar
[11]; 1.00E-5 Molar
  Growth Percent: 10.76%
[11]; Homo sapiens
  GI50: 529 nM
[11]; [13]
  CC50: 5470 nM
[11]; Log10 Concentration -4.0
  Percent Growth: -93%
[11]; Log10 Concentration -5.0
  Percent Growth: -79%
[11]; Log10 Concentration -6.0
  Percent Growth: 33%
[11]; Log10 Concentration -7.0
  Percent Growth: 95%
[11]; Log10 Concentration -8.0
  Percent Growth: 98%
[12]
  Log10GI50: -6.79 Molar
  Log10LC50: > -4.00 Molar
  Log10TGI: > -4.00 Molar
  TGI: > 1.00E-4 Molar
[12]; 1.00E-5 Molar
  Growth Percent: 4.24%
[12]; Homo sapiens, K562
  GI50: 162 nM
[12]; Homo sapiens, K562, read-out: LC50 (the source's name)
  CC50: > 100000 nM
[12]; Log10 Concentration -4.0
  Percent Growth: 4%
[12]; Log10 Concentration -5.0
  Percent Growth: 6%
[12]; Log10 Concentration -6.0
  Percent Growth: 11%
[12]; Log10 Concentration -7.0
  Percent Growth: 61%
[12]; Log10 Concentration -8.0
  Percent Growth: 101%
